Read-outs that look alike come from different tables or passages of the source.
Legend:
[1] = molecular target: T1, Epidermal growth factor receptor (EGFR) (Homo sapiens, UniProt P00533); assay: Epidermal Growth Factor Receptor (EGFR) enzymatic radiometric assay (Eurofins Cerep 14-531KP); type: biochemical
T1 construct: purchased Eurofins (Cerep), fee-for-service 14-531KP

[2] = molecular target: T2, Mouse recombinant iNOS (Mus musculus, UniProt P29477); assay: Inducible NOS (iNOS) enzymatic assay (Eurofins Cerep 3185); type: biochemical
T2 construct: purchased Eurofins (Cerep), fee-for-service 3185; host or cells: Escherichia coli
Description: In vitro characterization was performed on a fee-for-service basis at Eurofins (www.eurofins.com) if the assay was commercially available. […] DTT) to remove unbound ligand and to reduce nonspecific binding. […] The analysis was carried on in polypropylene 384-well plates incubated at 25 °C with shaking for 1 h in a final volume of 20 μL. […] The kinase concentration in the eluates was measured by qPCR. […] The mixture was incubated for 90 minutes at 37 °C, followed by the addition of Griess reagent. The binding was determined by photometry at 545 nm. […] was used as reference compound. […] A primary screening in duplicated was carried out (30 μM) to determine the target activity. […] The reaction was initiated by the addition of the Mg/ATP mixture. Afte r incubation for 30 minutes at 25 °C, the reaction was terminated by the addition of a solution containing EDTA and biotinylated phosphatidylinositol - 3,4,5-trisphosphate. Detection buffer containing europium -labelled anti - GST monoclonal antibody, GST -tagged GRP1 PH domain and streptavidin -allophycocyanin was added. Following, the plate was read in time-resolved fluorescence mode and the homogeneous time -resolved fluorescence (HTRF) signal was determined according to the formula HTRF = 10000 x (Em665 nm/Em6 20 nm). PI-103 was used as reference compound. […] The binding was determined by Spectrofluorimetric quantitation of rhodamine 123 (Excitation: 485 nm, Emission: 535 nm). 2 -TEDC was used as a reference compound. A primary screening in duplicated was carried out (30 μM) to determine the target S4

[3] = molecular target: T3, PI3 Kinase (p110b/p85a) (Homo sapiens, UniProt P42338); assay: PI3 Kinase (p110b/p85a) enzymatic HTRF assay (Eurofins Cerep 14-603KP); type: biochemical; settings: for remaining activity at 30 µM: % kinase activity remaining
T3 construct: purchased Eurofins (Cerep), fee-for-service 14-603KP
Description: Additional details on the conduct of in vitro assays are included in Supplementary Information S1. […]
PI3 Kinase (p110b/p85a). The enzyme was incubated in assay buffer containing 10 µM
phosphatidylinositol -4, 5-bispho sphate and Mg/A TP (200 µM). The reaction was initiated by
the addition of the Mg/ATP mixture. Afte r incubation for 30 minutes at 25 °C, the reaction was
terminated by the addition of a solution containing EDTA and biotinylated
phosphatidylinositol - 3,4,5-trisphosphate. Detection buffer containing europium -labelled anti -
GST monoclonal antibody, GST -tagged GRP1 PH domain and streptavidin -allophycocyanin
was added. Following, the plate was read in time-resolved fluorescence mode and the
homogeneous time -resolved fluorescence (HTRF) signal was determined according to the
formula HTRF = 10000 x (Em665 nm/Em6 20 nm). PI-103 was used as reference compound.
A primary screening in duplicated was carried out (30 µM) to determine the target activity. The
result was e xpres sed as a percentage of the positiv e control (i.e. % kinase activity remaining),
and the mean of the replicates was calculated. (Eurofins Cerep assay ID: 14 -603KP) […]
A primary screening in duplicated was carried out (30 µM) to determine the target

[4] = molecular target: T4, human PDE10A2 (Homo sapiens, UniProt Q9Y233); assay: Phosphodiesterase 10A2 (PDE10A2) enzymatic assay (Eurofins Cerep 4080); type: biochemical
T4 construct: purchased Eurofins (Cerep), fee-for-service 4080; host or cells: Sf9
Description: In vitro characterization was performed on a fee-for-service basis at Eurofins (www.eurofins.com) if the assay was commercially available.
Additional details on the conduct of in vitro assays are included in Supplementary Information S1.
The IC50 value and the standard error of the mean (SEM) were determined by a non-linear, least squares regression analysis using GraphPad Prism Version 9.0.2 for Macintosh (GraphPad Software, San Diego, California USA, https://www.graphpad.com). The dose–response curve was plotted using RStudio Team (2020), v. 1.3.1073 (RStudio, PBC, Boston, MA, http://www.rstudio.com/). […]
(§1) formation of 5’AMP from cAMP using human recombinant enzyme e xpressed in Sf9 cells.
(§2) The test compound was added to a buffer containing 40 mM Tris/HCl (pH 7. 4), 8 mM MgCl2, and 0. 2 µM [3H]cAMP + cAMP. Thereafter, enzyme (about 0. 8 U) wa s added and the mixture incubated for 20 minutes at 25 °C. SPA beads were added and the mixture was maintained at 25 °C for 30 minutes under shaking. [3H]5’AMP was quantified via scintillation counting. The […]
used as standard inhibitory reference compound. A primary screening in duplicated was carried out (30 µM) to determine the target activity.
(100 µM highest concentration and dilution factor in a log-scale) in triplicate for dose-respons e

[5] = molecular target: T5, human AA2AR (Homo sapiens, UniProt P29274); assay: Adenosine A2A receptor (AA2AR) calcium flux assay in RBL-2H3 cells (Eurofins Cerep 86-0011P-2409AN); type: cell-based; settings: top 30 μM, active if IC50 lower than 30 μM
T5 construct: host or cells: RBL-2H3

[6] = molecular target: PKN2 (human) (Homo sapiens, UniProt Q16513); assay: biochemical
[7] = test system: PDE10A; set-up: method as in printed at the sentence; settings: PDE10A inhibitor, papaverine analog; ref not given; cited from earlier work
[8] = molecular target: T6, Human recombinant 15-ALOX (Homo sapiens, UniProt P16050); assay: Arachidonate 15-lipoxygenase (15-ALOX) enzymatic assay (Eurofins Cerep 199017); type: biochemical
T6 construct: purchased Eurofins (Cerep), fee-for-service 199017; host or cells: E. coli
T6 sequence (P16050 1-662): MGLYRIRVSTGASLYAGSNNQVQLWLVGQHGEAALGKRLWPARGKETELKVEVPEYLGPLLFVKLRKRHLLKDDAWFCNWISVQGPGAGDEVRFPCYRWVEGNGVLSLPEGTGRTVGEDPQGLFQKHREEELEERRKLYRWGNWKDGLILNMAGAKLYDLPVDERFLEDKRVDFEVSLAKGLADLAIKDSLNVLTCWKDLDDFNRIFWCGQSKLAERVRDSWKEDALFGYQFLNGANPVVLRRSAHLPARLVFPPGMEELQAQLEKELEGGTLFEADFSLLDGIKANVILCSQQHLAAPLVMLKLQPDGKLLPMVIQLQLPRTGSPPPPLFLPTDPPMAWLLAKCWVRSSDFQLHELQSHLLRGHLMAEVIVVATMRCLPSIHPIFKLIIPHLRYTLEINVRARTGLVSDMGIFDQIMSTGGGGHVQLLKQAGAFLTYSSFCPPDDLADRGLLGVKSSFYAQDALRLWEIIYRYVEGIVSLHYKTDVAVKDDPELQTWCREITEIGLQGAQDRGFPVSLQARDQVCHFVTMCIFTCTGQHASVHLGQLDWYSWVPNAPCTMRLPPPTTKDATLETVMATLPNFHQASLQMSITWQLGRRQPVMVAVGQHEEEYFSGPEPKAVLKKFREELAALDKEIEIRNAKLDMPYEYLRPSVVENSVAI

[9] = molecular target: T7, human ADORA3 (Homo sapiens, UniProt P0DMS8); assay: Adenosine A3 receptor (ADORA3) functional cAMP HTRF assay in CHO cells (Eurofins Cerep G107); type: cell-based; settings: 8 concentrations, top 30 μM, active if IC50 lower than 30 μM
T7 construct: host or cells: CHO
T7 sequence (P0DMS8 1-318): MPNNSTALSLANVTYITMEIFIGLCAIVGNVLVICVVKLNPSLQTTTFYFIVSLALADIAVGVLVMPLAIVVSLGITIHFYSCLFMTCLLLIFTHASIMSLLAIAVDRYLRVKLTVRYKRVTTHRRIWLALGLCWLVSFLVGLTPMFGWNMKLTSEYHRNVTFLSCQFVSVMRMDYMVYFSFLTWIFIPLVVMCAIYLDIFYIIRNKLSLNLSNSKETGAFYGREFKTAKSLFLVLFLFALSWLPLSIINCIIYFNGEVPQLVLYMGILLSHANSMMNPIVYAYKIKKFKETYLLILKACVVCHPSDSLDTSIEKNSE
Description: In vitro characterization was performed on a fee-for-service basis at Eurofins (www.eurofins.com) if the assay was commercially available. […]
tested at 8 concentrations (100 µM a s the highest concentration and dilution factor in a log-scale) in triplicate for dose-response curve and IC50 determination. (Eurofins Cerep assay ID: […]
as §1, §2
used as standard inhibitory reference compound. […]
Functional activity of ADORA3 was evaluated in CHO cells transfected with human […]
(100 nM IB-MECA) in a first assay, and in a second one with […] (10 nM IB -ME CA) for 20 minutes at 37 °C, and formation of cAMP was determined by homogeneous time resolved fluorescence (HTRF) at lex=337 nm and lem=620 and 665 nm using a microplate reader (Envison, Perkin Elmer). The cAMP concentration was determined by dividing the […]
signal measured at 665 nm by that measured at 620 nm (ratio). […]

[10] = tested at 30 μM, active if IC50 lower than 30 μM

T4 sequence (Q9Y233 267-1055): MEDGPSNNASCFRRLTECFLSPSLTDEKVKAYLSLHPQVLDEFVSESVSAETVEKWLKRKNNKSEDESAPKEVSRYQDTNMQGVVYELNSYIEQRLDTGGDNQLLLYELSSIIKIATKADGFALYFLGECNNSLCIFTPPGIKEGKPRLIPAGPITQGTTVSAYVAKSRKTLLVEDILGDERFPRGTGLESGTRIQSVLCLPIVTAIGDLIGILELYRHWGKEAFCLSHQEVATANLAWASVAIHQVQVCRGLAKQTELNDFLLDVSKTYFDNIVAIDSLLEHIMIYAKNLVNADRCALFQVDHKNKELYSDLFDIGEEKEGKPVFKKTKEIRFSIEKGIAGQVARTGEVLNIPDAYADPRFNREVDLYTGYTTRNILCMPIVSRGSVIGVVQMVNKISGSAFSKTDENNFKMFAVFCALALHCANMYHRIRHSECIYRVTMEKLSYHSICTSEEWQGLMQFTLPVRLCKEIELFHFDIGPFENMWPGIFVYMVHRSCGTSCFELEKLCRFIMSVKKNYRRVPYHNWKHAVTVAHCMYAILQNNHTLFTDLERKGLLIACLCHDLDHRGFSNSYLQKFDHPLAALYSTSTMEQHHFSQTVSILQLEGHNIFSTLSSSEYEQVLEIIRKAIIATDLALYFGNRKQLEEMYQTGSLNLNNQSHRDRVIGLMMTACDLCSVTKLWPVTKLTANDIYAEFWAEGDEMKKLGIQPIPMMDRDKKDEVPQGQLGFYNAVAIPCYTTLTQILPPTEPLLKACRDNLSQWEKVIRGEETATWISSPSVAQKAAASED
Sequence of PKN2 (human) (Q16513 whole entry): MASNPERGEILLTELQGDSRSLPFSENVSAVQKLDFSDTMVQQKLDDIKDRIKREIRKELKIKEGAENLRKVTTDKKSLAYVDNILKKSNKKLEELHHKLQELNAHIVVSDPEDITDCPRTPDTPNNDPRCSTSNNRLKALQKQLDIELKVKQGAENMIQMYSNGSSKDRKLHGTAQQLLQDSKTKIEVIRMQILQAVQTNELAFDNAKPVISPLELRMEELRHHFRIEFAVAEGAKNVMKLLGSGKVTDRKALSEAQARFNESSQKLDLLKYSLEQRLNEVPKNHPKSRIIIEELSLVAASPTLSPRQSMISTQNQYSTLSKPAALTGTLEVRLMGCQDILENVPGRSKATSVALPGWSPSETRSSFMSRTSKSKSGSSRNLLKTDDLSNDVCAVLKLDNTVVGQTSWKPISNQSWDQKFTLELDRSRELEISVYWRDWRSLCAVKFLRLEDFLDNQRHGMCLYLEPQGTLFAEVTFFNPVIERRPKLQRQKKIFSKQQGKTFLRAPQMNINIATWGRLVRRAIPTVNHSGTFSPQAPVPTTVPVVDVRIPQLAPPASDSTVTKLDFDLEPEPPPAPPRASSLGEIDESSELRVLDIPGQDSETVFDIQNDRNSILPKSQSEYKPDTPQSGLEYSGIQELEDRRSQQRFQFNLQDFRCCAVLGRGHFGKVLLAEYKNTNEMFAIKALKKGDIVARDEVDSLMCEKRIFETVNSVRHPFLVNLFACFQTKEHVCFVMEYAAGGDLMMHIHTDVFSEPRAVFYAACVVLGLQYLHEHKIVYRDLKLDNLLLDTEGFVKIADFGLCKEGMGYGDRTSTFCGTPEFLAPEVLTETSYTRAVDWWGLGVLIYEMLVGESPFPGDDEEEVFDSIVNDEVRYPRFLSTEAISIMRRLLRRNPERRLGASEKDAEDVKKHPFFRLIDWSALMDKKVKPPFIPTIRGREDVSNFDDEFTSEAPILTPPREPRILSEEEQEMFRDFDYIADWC
T3 sequence (P42338 whole entry): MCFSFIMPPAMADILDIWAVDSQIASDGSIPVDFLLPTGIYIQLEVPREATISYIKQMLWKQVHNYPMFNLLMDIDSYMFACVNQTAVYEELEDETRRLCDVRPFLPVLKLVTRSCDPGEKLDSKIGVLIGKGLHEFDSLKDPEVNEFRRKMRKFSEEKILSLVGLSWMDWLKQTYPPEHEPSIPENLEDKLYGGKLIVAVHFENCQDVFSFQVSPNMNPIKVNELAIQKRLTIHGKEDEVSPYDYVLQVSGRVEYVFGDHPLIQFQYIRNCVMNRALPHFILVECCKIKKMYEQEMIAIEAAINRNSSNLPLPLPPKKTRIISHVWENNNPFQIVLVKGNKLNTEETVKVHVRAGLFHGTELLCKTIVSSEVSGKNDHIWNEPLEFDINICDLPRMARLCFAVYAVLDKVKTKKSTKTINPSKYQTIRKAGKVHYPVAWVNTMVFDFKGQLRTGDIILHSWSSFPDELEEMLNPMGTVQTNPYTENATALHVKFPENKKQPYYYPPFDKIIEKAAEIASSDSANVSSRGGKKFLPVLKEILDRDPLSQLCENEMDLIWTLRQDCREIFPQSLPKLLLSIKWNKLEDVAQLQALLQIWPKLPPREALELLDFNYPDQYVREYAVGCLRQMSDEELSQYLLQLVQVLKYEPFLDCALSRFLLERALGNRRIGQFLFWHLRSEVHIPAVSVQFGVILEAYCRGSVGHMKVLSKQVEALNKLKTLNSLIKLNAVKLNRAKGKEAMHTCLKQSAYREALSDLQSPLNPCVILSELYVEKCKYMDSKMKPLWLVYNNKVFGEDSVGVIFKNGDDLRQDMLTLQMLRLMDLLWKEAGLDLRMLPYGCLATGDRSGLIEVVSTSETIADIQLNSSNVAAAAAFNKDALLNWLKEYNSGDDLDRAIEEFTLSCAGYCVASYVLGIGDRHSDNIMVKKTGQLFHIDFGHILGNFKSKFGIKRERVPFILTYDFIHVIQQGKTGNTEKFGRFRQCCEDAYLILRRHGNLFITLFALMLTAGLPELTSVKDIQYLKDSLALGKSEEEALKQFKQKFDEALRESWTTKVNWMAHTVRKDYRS
T3 sequence (P27986 whole entry partner): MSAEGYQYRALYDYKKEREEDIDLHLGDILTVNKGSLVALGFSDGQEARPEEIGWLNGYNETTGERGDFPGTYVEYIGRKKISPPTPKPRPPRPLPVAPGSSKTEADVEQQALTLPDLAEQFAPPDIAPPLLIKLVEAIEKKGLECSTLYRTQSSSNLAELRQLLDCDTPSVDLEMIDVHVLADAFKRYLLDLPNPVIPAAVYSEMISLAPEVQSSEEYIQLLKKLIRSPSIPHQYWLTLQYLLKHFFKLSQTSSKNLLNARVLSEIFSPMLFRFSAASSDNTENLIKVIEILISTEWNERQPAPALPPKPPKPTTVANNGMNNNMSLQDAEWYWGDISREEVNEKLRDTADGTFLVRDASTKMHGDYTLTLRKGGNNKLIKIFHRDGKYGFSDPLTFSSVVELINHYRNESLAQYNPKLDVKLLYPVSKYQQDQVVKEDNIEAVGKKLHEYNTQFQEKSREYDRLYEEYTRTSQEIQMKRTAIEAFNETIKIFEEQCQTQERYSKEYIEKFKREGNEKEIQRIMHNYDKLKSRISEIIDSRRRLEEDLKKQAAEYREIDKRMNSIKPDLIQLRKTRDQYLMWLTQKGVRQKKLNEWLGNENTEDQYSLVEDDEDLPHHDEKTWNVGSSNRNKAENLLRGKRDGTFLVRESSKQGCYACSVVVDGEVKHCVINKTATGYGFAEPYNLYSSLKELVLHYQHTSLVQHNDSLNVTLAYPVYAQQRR
T1 sequence (P00533 25-1210): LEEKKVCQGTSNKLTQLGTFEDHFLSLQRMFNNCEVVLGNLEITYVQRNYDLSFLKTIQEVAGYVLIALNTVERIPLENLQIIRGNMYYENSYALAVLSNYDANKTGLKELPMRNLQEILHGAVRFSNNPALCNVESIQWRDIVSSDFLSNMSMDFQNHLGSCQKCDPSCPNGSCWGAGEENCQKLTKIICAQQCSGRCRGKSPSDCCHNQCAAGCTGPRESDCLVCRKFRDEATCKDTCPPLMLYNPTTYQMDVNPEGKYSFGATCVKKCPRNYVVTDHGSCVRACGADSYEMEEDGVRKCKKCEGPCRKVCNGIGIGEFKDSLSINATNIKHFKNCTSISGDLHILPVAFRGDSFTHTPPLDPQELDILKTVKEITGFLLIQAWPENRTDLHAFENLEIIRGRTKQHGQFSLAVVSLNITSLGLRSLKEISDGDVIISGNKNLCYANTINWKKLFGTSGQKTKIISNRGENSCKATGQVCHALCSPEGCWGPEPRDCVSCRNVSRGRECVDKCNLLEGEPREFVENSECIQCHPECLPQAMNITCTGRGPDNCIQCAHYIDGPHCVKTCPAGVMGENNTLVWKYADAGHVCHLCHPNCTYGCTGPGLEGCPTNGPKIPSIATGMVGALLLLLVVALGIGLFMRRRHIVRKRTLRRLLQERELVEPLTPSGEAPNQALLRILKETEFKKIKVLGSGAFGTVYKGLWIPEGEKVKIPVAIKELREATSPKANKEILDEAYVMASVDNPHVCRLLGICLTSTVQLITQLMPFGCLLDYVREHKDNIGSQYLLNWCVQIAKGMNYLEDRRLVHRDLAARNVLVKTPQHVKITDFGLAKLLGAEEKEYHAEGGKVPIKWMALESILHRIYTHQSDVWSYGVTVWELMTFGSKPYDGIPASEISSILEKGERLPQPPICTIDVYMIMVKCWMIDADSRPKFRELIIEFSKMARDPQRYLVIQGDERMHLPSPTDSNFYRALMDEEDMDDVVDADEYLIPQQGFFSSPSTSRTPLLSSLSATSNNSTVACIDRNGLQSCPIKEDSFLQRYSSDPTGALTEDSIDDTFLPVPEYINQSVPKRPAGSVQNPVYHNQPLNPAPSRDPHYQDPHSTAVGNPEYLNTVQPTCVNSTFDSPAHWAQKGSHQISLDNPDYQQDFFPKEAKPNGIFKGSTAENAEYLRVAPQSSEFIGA

## CCS(=O)(=O)N1CC(CC#N)(n2cc(-c3ncnc4[nH]ccc34)cn2)C1 [Baricitinib]
[1]; 30 µM, mean of n=2
  inhibition at 30 µM: 21%
[1]; [10]
  IC50 (μM), EGFR: Inactive
[2]; mean of n=2, read-out: % inhibition (mean) activity, iNOS
  inhibition at 30 µM: 5%
[2]; replicate 1, read-out: % inhibition of control activity (1st), iNOS
  inhibition at 30 µM: 6%
[2]; replicate 2, read-out: % inhibition of control activity (2nd), iNOS
  inhibition at 30 µM: 4%
[2]; [10]
  IC50 (μM), iNOS: Inactive
[3]; 30 µM, mean of n=2, read-out: % inhibition (mean) activity, PI3Kbeta (p110b/p85a)
  inhibition at 30 µM: 4%
[3]; 30 µM, replicate 1, read-out: % inhibition of control activity (1st), measured as % of positive control activity, PI3Kbeta (p110b/p85a)
  remaining activity at 30 µM: 92%
[3]; 30 µM, replicate 2, read-out: % inhibition of control activity (2nd), measured as % of positive control activity, PI3Kbeta (p110b/p85a)
  remaining activity at 30 µM: 99%
[3]; [10]
  IC50 (μM), PI3 Kinase (p110b/p85a): Inactive
[4]; mean of n=2, read-out: % inhibition (mean) activity, PDE10A2
  inhibition at 30 µM: 44.8%
[4]; replicate 1, read-out: % inhibition of control activity (1st), PDE10A2
  inhibition at 30 µM: 45.5%
[4]; replicate 2, read-out: % inhibition of control activity (2nd), PDE10A2
  inhibition at 30 µM: 44%
[4]; dose–response, 8 concentrations, top 100 μM, triplicate, mean ± SEM
  IC50: 28 ± 2 µM
[4]; estimated from experimental IC50, Cheng and Prusoff
  Ki: 6.1 µM
[5]; antagonistic effect
  IC50 (μM), AA2AR, antagonistic effect: Inactive
[6]; read-out: % inhibition (mean) activity, PRK2
  inhibition at 30 µM: 98%
[6]; read-out: % inhibition of control activity (1st), measured as % of positive control activity, PRK2
  remaining activity at 30 µM: 1%
[6]; read-out: % inhibition of control activity (2nd), measured as % of positive control activity, PRK2
  remaining activity at 30 µM: 2%

## COc1cc2ncnc(N3CC[C@@H](Oc4cnc5ccccc5n4)C3)c2cc1OC [PQ-10]
[7]
  IC50: 6 µM

## C[C@@H]1CCN(C(=O)CC#N)C[C@@H]1N(C)c1ncnc2[nH]ccc12 [Tofacitinib]
[8]; 30 μM screen, follow-up 8 concentrations top 100 μM, triplicate, active if IC50 lower than 30 μM
  IC50 (μM), 15-ALOX: Inactive
[8]; mean of n=2, read-out: % inhibition (mean) activity, 15-LOX-1
  inhibition at 30 µM: 27%
[8]; replicate 1, read-out: % inhibition of control activity (1st), 15-LOX-1
  inhibition at 30 µM: 19.3%
[8]; replicate 2, read-out: % inhibition of control activity (2nd), 15-LOX-1
  inhibition at 30 µM: 34%
[9]
  IC50 (μM), ADORA3, antagonistic and agonistic effect: Inactive
[5]; agonistic effect (footnote c)
  IC50 (μM), AA2AR, agonistic effect: Inactive

— PMC9096754 (Scientific Reports, 2022)
